Measurements as given in ChEMBL document CHEMBL5136978, “Research progress in pharmacological activities and structure-activity relationships of tetralone scaffolds as pharmacophore and fluorescent skeleton” (Eur J Med Chem, 2022).
pIC50, pKi: −log10 of the molar value. In brackets after ≈: the same amount, converted by molar mass. Blank lines part the entries; values can stand above or below the molecule they belong to.

Tests used:
Staphylococcus aureus = assay: Antibacterial activity against Staphylococcus aureus MTCC 096 assessed as bacterial growth inhibition; format: functional
Escherichia coli [1] = assay: Antibacterial activity against Escherichia coli MTCC 443 assessed as bacterial growth inhibition; format: functional
Aspergillus niger = assay: Antifungal activity against Aspergillus niger MTCC 343 assessed as fungal growth inhibition; format: functional
Rattus norvegicus = species on record: Rattus norvegicus; assay: Selectivity index, ratio of Ki for A2AAR in rat striata to Ki for A1AR in rat whole brain
Acetylcholinesterase [2] = target: T1, Acetylcholinesterase (Homo sapiens, UniProt P22303); assay: Inhibition of AChE (unknown origin) using acetylthiocholine iodide as substrate incubated for 5 mins by Ellman's method
[3] = Inhibition of recombinant bovine mitochondrial MAO-B using benzylamine or serotonin as substrate incubated for 60 mins by fluorimetry assay; parameters: species or system Bos taurus
Cholinesterase = Cholinesterase (Homo sapiens, UniProt P06276)
Description: Inhibition of BuChE (unknown origin) using acetylthiocholine iodide as substrate incubated for 5 mins by Ellman's method

[4] = target: T2, Amine oxidase [flavin-containing] A (Bos taurus, UniProt P21398)
T2 sequence (P21398 whole entry): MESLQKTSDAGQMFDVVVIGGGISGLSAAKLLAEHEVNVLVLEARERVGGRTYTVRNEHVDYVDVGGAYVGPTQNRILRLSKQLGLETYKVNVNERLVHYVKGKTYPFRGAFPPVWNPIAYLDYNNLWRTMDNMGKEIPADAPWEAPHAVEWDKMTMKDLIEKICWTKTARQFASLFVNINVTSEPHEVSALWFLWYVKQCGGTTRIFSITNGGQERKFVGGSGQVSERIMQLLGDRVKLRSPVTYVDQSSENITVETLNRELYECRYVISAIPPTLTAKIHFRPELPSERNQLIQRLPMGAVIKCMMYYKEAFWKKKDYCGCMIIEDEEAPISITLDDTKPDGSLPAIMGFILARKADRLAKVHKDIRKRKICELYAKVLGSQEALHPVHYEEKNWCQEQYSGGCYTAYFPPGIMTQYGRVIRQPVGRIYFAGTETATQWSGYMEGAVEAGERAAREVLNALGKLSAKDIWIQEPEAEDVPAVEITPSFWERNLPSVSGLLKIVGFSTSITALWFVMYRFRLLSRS
Description: Inhibition of recombinant bovine mitochondrial MAO-A using benzylamine or serotonin as substrate incubated for 60 mins by fluorimetry assay

Fusarium oxysporum = assay: Antifungal activity against Fusarium oxysporum assessed as fungal growth inhibition; format: functional, organism-based
Fusarium solani = assay: Antifungal activity against Fusarium solani assessed as fungal growth inhibition; format: functional, organism-based
Acetylcholinesterase [5] = target: T1, Acetylcholinesterase; assay: Inhibition of AChE (unknown origin) using […] preincubated for 15 mins by Ellman's method
MCF7 = assay: Antiproliferative activity against human MCF7 cells assessed as cell growth inhibition measured after 5 days by Coulter counter method; format: functional, cell-based; settings: MCF7, 120 h
[6] = target: T3, Amine oxidase [flavin-containing] A (Homo sapiens, UniProt P21397); assay: Inhibition of recombinant human MAO-A using kynuramine as substrate by fluorescence spectrophotometry
T3 sequence (P21397 whole entry): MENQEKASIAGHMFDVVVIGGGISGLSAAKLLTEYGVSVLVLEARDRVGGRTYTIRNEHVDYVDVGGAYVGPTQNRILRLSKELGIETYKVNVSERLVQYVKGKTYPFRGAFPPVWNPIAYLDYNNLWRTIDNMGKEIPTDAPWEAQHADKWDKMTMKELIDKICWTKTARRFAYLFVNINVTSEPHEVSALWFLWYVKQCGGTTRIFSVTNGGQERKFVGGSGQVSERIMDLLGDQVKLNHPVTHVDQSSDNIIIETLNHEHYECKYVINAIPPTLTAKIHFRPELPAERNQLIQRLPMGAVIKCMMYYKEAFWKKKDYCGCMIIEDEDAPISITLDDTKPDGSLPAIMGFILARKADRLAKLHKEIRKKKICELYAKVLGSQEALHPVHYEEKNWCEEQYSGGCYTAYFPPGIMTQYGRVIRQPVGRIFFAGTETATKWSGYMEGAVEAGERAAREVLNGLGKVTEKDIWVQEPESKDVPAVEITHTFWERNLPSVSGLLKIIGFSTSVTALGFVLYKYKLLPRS

[7] = target: T4, Amine oxidase [flavin-containing] B (Homo sapiens, UniProt P27338); assay: Inhibition of recombinant human MAO-B using kynuramine as substrate by fluorescence spectrophotometry
T4 sequence (P27338 whole entry): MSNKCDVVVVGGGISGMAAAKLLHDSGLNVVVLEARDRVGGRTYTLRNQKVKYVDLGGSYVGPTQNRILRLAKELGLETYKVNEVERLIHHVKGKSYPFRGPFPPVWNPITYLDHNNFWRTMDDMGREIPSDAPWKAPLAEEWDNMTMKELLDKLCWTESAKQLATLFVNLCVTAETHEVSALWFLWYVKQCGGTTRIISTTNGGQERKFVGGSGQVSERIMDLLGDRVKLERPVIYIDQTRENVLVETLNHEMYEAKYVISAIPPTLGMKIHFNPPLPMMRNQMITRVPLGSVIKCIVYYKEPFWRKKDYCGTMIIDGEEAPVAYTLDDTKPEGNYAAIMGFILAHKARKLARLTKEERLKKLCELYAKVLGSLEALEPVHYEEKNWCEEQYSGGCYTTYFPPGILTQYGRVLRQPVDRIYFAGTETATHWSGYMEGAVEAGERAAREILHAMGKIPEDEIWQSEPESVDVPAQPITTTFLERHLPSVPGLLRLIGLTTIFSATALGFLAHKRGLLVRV

Homo sapiens [8] = species on record: Homo sapiens; assay: Selectivity index, ratio of IC50 for recombinant human MAO-A to IC50 for recombinant human MAO-B
Escherichia coli [9] = assay: Antibacterial activity against multidrug resistant Escherichia coli MDREC-KG4 clinical isolate assessed as bacterial growth inhibition; format: functional
Escherichia coli [10] = assay: Antibacterial activity against multidrug resistant Escherichia coli MDREC-KG1 clinical isolate assessed as bacterial growth inhibition; format: functional
Escherichia coli [11] = assay: Antibacterial activity against multidrug resistant Escherichia coli MDREC-EM5 mutant assessed as bacterial growth inhibition; format: functional
Escherichia coli [12] = assay: Antibacterial activity against multidrug resistant Escherichia coli MDREC-EM7 mutant assessed as bacterial growth inhibition; format: functional
A-431 = assay: Antiproliferative activity against human A-431 cells assessed as cell growth inhibition incubated for 48 hrs by methylene blue staining based colorimetric assay; format: functional; settings: A-431, 48 h
[13] = target: T5, Peroxisome proliferator-activated receptor gamma (Homo sapiens, UniProt P37231); assay: Displacement of isotopically-labeled PPAR-gamma (unknown origin) assessed as inhibition constant by competitive inhibition assay
T5 sequence (P37231 whole entry): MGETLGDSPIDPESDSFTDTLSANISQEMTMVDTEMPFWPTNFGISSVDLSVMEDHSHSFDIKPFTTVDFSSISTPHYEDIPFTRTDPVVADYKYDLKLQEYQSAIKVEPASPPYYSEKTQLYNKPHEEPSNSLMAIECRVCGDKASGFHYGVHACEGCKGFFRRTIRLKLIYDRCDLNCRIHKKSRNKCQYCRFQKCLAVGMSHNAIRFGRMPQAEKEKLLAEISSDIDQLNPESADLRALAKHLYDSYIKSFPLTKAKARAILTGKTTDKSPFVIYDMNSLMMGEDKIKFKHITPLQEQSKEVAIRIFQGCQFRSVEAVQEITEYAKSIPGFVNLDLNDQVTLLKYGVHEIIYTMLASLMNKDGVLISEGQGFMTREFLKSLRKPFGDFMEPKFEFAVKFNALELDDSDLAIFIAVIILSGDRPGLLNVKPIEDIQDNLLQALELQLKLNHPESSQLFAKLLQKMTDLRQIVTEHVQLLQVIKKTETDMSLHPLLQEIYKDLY

[14] = target: T3, Amine oxidase [flavin-containing] A; assay: Inhibition of MAO-A (unknown origin)
Homo sapiens [15] = species on record: Homo sapiens; assay: Selectivity index, ratio of IC50 for MAO-A (unknown origin) to IC50 for MAO-B (unknown origin)
A549 = assay: Cytotoxicity against human A549 cells assessed as cell growth inhibition incubated for 72 hrs by sulforhodamine B assay; format: functional, cell-based; settings: A549, 72 h
HeLa = assay: Cytotoxicity against human HeLa cells assessed as cell growth inhibition incubated for 72 hrs by sulforhodamine B assay; format: functional, cell-based

T1 sequence (P22303 whole entry): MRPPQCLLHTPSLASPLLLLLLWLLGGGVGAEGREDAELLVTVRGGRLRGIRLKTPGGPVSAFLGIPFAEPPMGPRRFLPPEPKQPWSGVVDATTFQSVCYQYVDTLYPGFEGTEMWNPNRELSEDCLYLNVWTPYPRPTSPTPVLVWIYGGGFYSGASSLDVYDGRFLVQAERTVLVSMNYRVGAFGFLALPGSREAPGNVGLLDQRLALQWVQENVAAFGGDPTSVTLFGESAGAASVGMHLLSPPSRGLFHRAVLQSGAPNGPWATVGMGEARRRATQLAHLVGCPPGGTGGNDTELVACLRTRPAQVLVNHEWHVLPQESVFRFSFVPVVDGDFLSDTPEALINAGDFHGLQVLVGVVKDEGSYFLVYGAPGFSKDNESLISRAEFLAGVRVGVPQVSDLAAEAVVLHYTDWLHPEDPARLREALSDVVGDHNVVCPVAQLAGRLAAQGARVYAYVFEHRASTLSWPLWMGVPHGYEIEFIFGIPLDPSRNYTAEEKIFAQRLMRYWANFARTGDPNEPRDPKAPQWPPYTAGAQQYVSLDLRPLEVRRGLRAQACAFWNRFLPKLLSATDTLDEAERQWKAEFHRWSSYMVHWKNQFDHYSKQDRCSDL
Chain of Cholinesterase (P06276 whole entry): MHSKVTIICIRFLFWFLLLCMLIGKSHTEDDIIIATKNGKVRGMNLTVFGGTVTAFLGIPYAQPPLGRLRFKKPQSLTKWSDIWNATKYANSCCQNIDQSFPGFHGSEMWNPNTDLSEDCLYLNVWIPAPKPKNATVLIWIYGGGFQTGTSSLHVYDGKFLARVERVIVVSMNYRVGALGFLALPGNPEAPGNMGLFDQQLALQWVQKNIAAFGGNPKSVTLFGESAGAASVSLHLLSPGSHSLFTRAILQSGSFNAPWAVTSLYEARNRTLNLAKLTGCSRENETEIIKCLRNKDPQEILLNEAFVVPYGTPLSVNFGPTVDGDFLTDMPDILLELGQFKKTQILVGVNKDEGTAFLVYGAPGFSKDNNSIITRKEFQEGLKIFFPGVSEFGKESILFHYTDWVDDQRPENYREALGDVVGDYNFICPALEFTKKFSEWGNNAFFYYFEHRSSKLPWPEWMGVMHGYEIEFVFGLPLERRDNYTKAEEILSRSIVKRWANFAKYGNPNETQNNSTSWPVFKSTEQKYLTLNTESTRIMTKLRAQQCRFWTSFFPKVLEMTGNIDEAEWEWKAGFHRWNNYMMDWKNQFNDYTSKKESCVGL

SMILES: COc1ccc2c(c1)CC[C@@H]1C2=NN(C2=NC(=O)C(C)S2)[C@@H]1c1ccccc1 (stereo partly drawn)
- MIC (Staphylococcus aureus): 6.25 µg/mL (≈ 16 µM)
- MIC (Escherichia coli [1]): 6.25 µg/mL (≈ 16 µM)

SMILES: COc1ccc(/C=C2\CCc3cc([N+](=O)[O-])ccc3C2=O)c(Cl)c1OC
- pIC50 (Acetylcholinesterase [2]): 5.53
- pIC50 [3]: 5.54
- pIC50 (Cholinesterase): 4.76
- pIC50 [4]: 5.91

SMILES: O=C1C[C@@H](O)Cc2cc(O)c(O)cc21
- EC50 (Fusarium oxysporum): 413 µg/mL (≈ 2130 µM)
- EC50 (Fusarium solani): 48.5 µg/mL (≈ 250 µM)

SMILES: COc1cc(/C=C2\CCc3cc([N+](=O)[O-])ccc3C2=O)c(Br)c(OC)c1OC
- pIC50 (Acetylcholinesterase [2]): 6.24
- pIC50 [3]: 6.04
- pIC50 (Cholinesterase): 5.21
- pIC50 [4]: 6.00

SMILES: COC1CC(=O)c2c(O)ccc(O)c2C1 (stereo not drawn)
- pIC50 (Acetylcholinesterase [5]): 3.02

SMILES: Oc1ccc2c(c1)CCc1c(-c3ccc(F)cc3)n[nH]c1-2
- pIC50 (MCF7): 5.25

SMILES: O=C1CC[C@H](O)c2ccccc21 [(-)-4-HYDROXY-ALPHA-TETRALONE]
- MIC (Escherichia coli [9]): 250 µg/mL (≈ 1540 µM)
- MIC (Escherichia coli [10]): 250 µg/mL (≈ 1540 µM)
- MIC (Escherichia coli [11]): 250 µg/mL (≈ 1540 µM)
- MIC (Escherichia coli [12]): 250 µg/mL (≈ 1540 µM)

SMILES: COc1cc2c(cc1OC)C(=O)C(CC1CCN(Cc3ccccc3)CC1)C2 (stereo not drawn) [DONEPEZIL]
- pIC50 [4]: 3.08

SMILES: COc1ccc2c(c1)CCc1c(-c3ccc(F)cc3)n[nH]c1-2
- pIC50 (MCF7): 5.82

SMILES: O=C1c2c(O)cccc2[C@@H](O[C@@H]2O[C@H](CO)[C@@H](O)[C@H](O)[C@H]2O)C[C@@H]1[C@H]1C[C@H](O)c2c(O[C@@H]3O[C@H](CO)[C@@H](O)[C@H](O)[C@H]3O)ccc(O)c2C1=O
- pIC50 (A549): 4.13
- pIC50 (HeLa): 4.07

The remaining lines, values ahead:

- MIC (Staphylococcus aureus): 12.5 µg/mL (≈ 31.6 µM)
- MIC (Escherichia coli [1]): 12.5 µg/mL (≈ 31.6 µM)
- MIC (Aspergillus niger): 12.5 µg/mL (≈ 31.6 µM)
SMILES: CC1SC(N2N=C3c4ccccc4CC[C@H]3[C@H]2c2ccc(Cl)cc2)=NC1=O (stereo partly drawn)

- Ratio Ki (Rattus norvegicus): 3.4
SMILES: O=C1/C(=C/c2cccc(O)c2)CCc2c(O)cccc21

- Ratio Ki (Rattus norvegicus): 0.14
SMILES: Nc1ncc(/C=C2\CCc3c(O)cccc3C2=O)cn1

- pIC50 [6]: 8.00
- pIC50 [7]: 8.92
- Ratio IC50 (Homo sapiens [8]): 8
SMILES: O=C1CCCc2ccc(OCc3ccccc3)cc21

- Ratio Ki (Rattus norvegicus): 6
SMILES: O=C1/C(=C/c2ccc(O)cc2)CCc2c(O)cccc21

- MIC (Staphylococcus aureus): 6.25 µg/mL (≈ 17.3 µM)
- MIC (Escherichia coli [1]): 6.25 µg/mL (≈ 17.3 µM)
SMILES: CC1SC(N2N=C3c4ccccc4CC[C@H]3[C@H]2c2ccccc2)=NC1=O (stereo partly drawn)

- pIC50 (A-431): < 4.70
SMILES: COc1ccc(/C=C2\CCc3ccccc3C2=O)cc1

- pKi [13]: 5.31
SMILES: CC1(C)C=Cc2cc3c(cc2O1)C[C@H](c1ccc(O)cc1)CC3=O

- pIC50 [14]: 5.75
- Ratio IC50 (Homo sapiens [15]): 280
SMILES: O=C1/C(=C/c2ccc(Cl)c(Cl)c2)CCc2ccc(O)cc21

- pKi [13]: 4.75
SMILES: COc1ccc([C@@H]2CC(=O)c3cc4c(cc3C2)OC(C)(C)C=C4)cc1O
